Measurements published in patent US11339193B2, “CDP protein secretion inhibitors” (KEZAR LIFE SCIENCES, priority 2018, dated 2022).
Like-named read-outs stand apart in the source and are kept apart here. Numbered stars: 1 amine (or outer) side, 2 acyl side, 3 side chain; on linkers, the order of the positions; unused ones are H or OH. Square brackets hold non-standard residues; d marks the D form. Peptide text beside a SMILES is read from it. NMeAla(5-Cl-benzothien-3-yl) = CN[C@@H](Cc1csc2ccc(Cl)cc12)C(=O)O; X19 = CN([C@@H](Cc1cn(Cc2ccc(Cl)cc2)c2ccccc12)C(=O)[*:2])[*:1]; X14 = CC#CCn1cc(C[C@@H](C(=O)[*:2])N(C)[*:1])c2ccccc21; Ala(1-cyclohexenyl) = N[C@@H](CC1=CCCCC1)C(=O)O; Butanoyl(2R-oxy,4-CN) = N#CCC[C@@H](O)C(=O)O; X23 = CN([C@@H](CC1=CCCCC1)C(=O)[*:2])[*:1]; Abu(4,4,4-F3) = N[C@@H](CC(F)(F)F)C(=O)O; X12 = O=C([C@H](CC1=CCCC1)N[*:1])[*:2]; NMeL = CN[C@@H](CC(C)C)C(=O)O; NMeA = CN[C@@H](C)C(=O)O

Columns and labels:
Format in all cases: cell-based
[1] = test system: PD1-ss+10aa/Gaussia Luciferase; experiment: Dox induced PD1-ss-Gluc assay
Description: Dox Induced PD1-ss-Gluc Assay
(§1) Flp-In 293 T-REx™ cells were transfected with pcDNA™5/FRT/TO plasmid inserted with cDNA encoding Gaussia Luciferase fused to the 3′ end of cDNA encoding PD1 signal sequence plus 10 amino acids (N-[…]-C) (SEQ ID NO:3). Transfected cells were selected for resistance to the selectable markers Hygromycin and Blasticidin to create a stable cell line that contained the PD1-ss+10aa/Gaussia Luciferase cDNA insert whose expression was regulated under the T-REx™ system. The day before assay, cells were trypsinized and plated in 384-well tissue culture plates. The next day, compound dilutions in DMSO/media containing doxycycline were added to the wells and incubated at 37° C., 5% CO2.

[2] = test system: HER3ss-Gluc; experiment: HER3ss assay
Procedure: The mature domain of secreted luciferase from Gaussia princeps (GLuc) was cloned into pcDNA5/FRT/TO. The signal sequence plus four amino acids of the mature domain from HER3 ([…]) (SEQ ID NO:8) were cloned upstream of GLuc mature domain and used in transient transfection experiment. HEK-293T T-rex cells were cultured in Dulbecco's modified Eagle's medium with 10% FBS at 5% CO2. Cells were plated 1×10e6 cells per well in a 6-well plate and incubated for 6 h. Cells were transiently transfected with HER3ss-Gluc using Lipofectamine 2000 (Invitrogen). After overnight incubation, transfected cells were replated in a clear-bottomed, black 96-well plate at a density of 20,000 cells per well. Six hours after plating, the cells were treated with doxycycline (1 μg/ml) and increasing concentrations of the indicated compounds for 24 h. Secreted luciferase in the conditioned media was quantified by luminescence using the BioLux Gaussia Luciferase Assay Kit (New England Biolabs, Ipswich, Mass., USA) and a SpectraMax M5 plate reader (Molecular Devices).

[3] = test system: U266B1 multiple myeloma cell line; experiment: U266 assay (cell viability, Celltiter-Glo); details: Homo sapiens, U-266
Procedure: Cells were plated in 384-well tissue culture plates and treated with compound dilutions in DMSO/media. Plates were incubated at 37° C., 5% CO2 for 48 hours. After 48 hours, Celltiter-Glo@ (Promega) was added to each well and luciferase signal was quantified using Tecan Infinite M1000 Pro for cell viability determination.

[4] = test system: TNFα-FL/Gaussia Luciferase; experiment: Dox induced TNFα-FL-Gluc assay
Description: Dox Induced TNFα-FL-Gluc Assay
Flp-In 293 T-REx™ cells were transfected with pcDNA™5/FRT/TO plasmid inserted with cDNA encoding Gaussia Luciferase fused to the 3′ end of cDNA encoding full length TNFα (amino acids 1-233). Transfected cells were selected for resistance to the selectable markers Hygromycin and Blasticidin to create a stable cell line that contained the TNFα-FL/Gaussia Luciferase cDNA insert whose expression was regulated under the T-REx™ system. The day before assay, cells were trypsinized and plated in 384-well tissue culture plates. The next day, compound dilutions in DMSO/media containing doxycycline were added to the wells and incubated at 37° C., 5% CO2.

[5] = test system: NCI-H929 multiple myeloma cell line; experiment: H929 assay (cell viability, Celltiter-Glo); details: Homo sapiens, read-out: H929 EC50
Procedure: The human multiple myeloma cell line NCI-H929 was cultured in Advanced RPMI 1640 media (Gibco@) supplemented with 6% fetal bovine serum, 2 mM Glutamine, and 1× Penicillin/Streptomycin. On the day of assay, cells were resuspended in RPMI 1640 media supplemented with 10% fetal bovine serum, 2 mM Glutamine, and 1× Penicillin/Streptmycin and plated in 384-well tissue culture plates and treated with compound dilutions in DMSO/media. Plates were incubated at 37° C., 5% CO2 for 48 hours. After 48 hours, Celltiter-Glo@ (Promega) was added to each well and luciferase signal was quantified using Tecan Infinite M1000 Pro for cell viability determination.

[6] = test system: Prl-ss+10aa/Gaussia Luciferase; experiment: Prl-ss-Gluc assay (constitutively active or 24 hr Dox inducible)
Description: Constitutively Active Prl-ss-Gluc Assay
Flp-In 293 T-REx™ cells were transfected with pcDNA™5/FRT plasmid inserted with cDNA encoding Gaussia Luciferase fused to the 3′ end of cDNA encoding Prl signal sequence plus 10 amino acids (N-[…]-C) (SEQ ID NO:4). Transfected cells were selected for resistance to the selectable markers Hygromycin and Blasticidin to create a stable cell line that constitutively expressed the Prlss+10aa/Gaussia Luciferase fusion protein. The day before assay, cells were trypsinized and plated in 384-well tissue culture plates. The next day, culture media was removed from the wells and replaced with fresh media. Compound dilutions in DMSO/media were added to the wells and incubated at 37° C., 5% CO2.
24 hr Dox Inducible Prl-ss-Gluc Assay
as §1, with “Prl” for “PD1”, “NO:5).” for “NO:3).”, “Prl-ss+10aa/Gaussia” for “PD1-ss+10aa/Gaussia”

[7] = I.A.; read-out: PD1ss Gluc IC50
[8] = I.A.; read-out: TNFa FL Gluc IC50
[9] = NCI-H929, 48 hours, cell viability
[10] = Flp-In 293 T-REx cells, 24 hours; read-out: Prl IC50
[11] = Flp-In 293 T-REx cells, doxycycline, 24 hours; read-out: PD1ss Gluc IC50
[12] = HEK-293T T-rex cells, transient transfection, doxycycline, 24 h; read-out: HER3 ss IC50
[13] = Flp-In 293 T-REx cells, doxycycline, 24 hours; read-out: TNFa FL Gluc IC50

Structure (SMILES): CC(C)C[C@@H]1NC(=O)[C@H](Cc2csc3ccc(Cl)cc23)N(C)C(=O)[C@H](CC(C)C)NC(=O)[C@H](CC2=CCCCC2)N(C)C(=O)[C@H](CC(F)(F)F)NC(=O)[C@@H](CCC#N)OC(=O)[C@H](C)N(C)C1=O [C-80] (cyclo(L[NMeA][Butanoyl(2R-oxy,4-CN)][Abu(4,4,4-F3)][X23]L[NMeAla(5-Cl-benzothien-3-yl)]))
- IC50 [1, 7]: > 25000 nM
- IC50 ([2]; I.A.; read-out: HER3 ss IC50): > 25000 nM
- EC50 ([3]; 48 hours, cell viability): 5680 nM
- IC50 [4, 8]: > 25000 nM
- EC50 [5, 9]: 3.44 µM
- IC50 [6, 10]: 23700 nM

Structure (SMILES): CC(C)C[C@@H]1NC(=O)[C@H](Cc2csc3ccc(Cl)cc23)N(C)C(=O)[C@H](CC2=CCCC2)NC(=O)[C@H](CC(C)C)N(C)C(=O)[C@H](CC2=CCCCC2)NC(=O)[C@@H](CCC#N)OC(=O)[C@H](C)N(C)C1=O [C-86] (cyclo(L[NMeA][Butanoyl(2R-oxy,4-CN)][Ala(1-cyclohexenyl)][NMeL][X12][NMeAla(5-Cl-benzothien-3-yl)]))
- IC50 [1, 11]: 567 nM
- IC50 [2, 12]: 10 nM
- EC50 ([3]; I.A.): > 25000 nM
- IC50 [4, 8]: > 25000 nM
- EC50 ([5]; NCI-H929, I.A.): > 25 µM
- IC50 ([6]; I.A.; read-out: Prl IC50): > 25000 nM

Structure (SMILES): CC(C)C[C@@H]1NC(=O)[C@H](Cc2cn(Cc3ccc(Cl)cc3)c3ccccc23)N(C)C(=O)[C@H](CC(C)C)NC(=O)[C@H](CC(C)C)N(C)C(=O)[C@H](CC(F)(F)F)NC(=O)[C@@H](CCC#N)OC(=O)[C@H](C)N(C)C1=O [C-95] (cyclo(L[NMeA][Butanoyl(2R-oxy,4-CN)][Abu(4,4,4-F3)][NMeL]L[X19]))
- IC50 ([1]; read-out: PD1ss Gluc IC50; Flp-In 293 T-REx cells, doxycycline, 24 hours): 19 nM
- IC50 ([2]; read-out: HER3 ss IC50; HEK-293T T-rex cells, transient transfection, doxycycline, 24 h): 35 nM
- EC50 ([3]; I.A.): > 25000 nM
- IC50 ([4]; read-out: TNFa FL Gluc IC50; Flp-In 293 T-REx cells, doxycycline, 24 hours): 93 nM
- EC50 ([5]; NCI-H929, 48 h): 0.588 µM
- IC50 ([6]; read-out: Prl IC50; Flp-In 293 T-REx cells, 24 hours): 391 nM

Structure (SMILES): CC#CCn1cc(C[C@H]2C(=O)N[C@@H](CC(C)C)C(=O)N(C)[C@@H](C)C(=O)O[C@H](CCC#N)C(=O)N[C@@H](CC(F)(F)F)C(=O)N(C)[C@@H](CC(C)C)C(=O)N[C@@H](CC(F)(F)F)C(=O)N2C)c2ccccc21 [C-91] (cyclo(L[NMeA][Butanoyl(2R-oxy,4-CN)][Abu(4,4,4-F3)][NMeL][Abu(4,4,4-F3)][X14]))
- IC50 [1, 11]: 274 nM
- IC50 [2, 12]: 124 nM
- EC50 ([3]; I.A.): > 25000 nM
- IC50 [4, 13]: 986 nM
- EC50 [5, 9]: 4.88 µM
- IC50 [6, 10]: 9800 nM

Structure (SMILES): CC(C)C[C@@H]1NC(=O)[C@H](Cc2csc3ccc(Cl)cc23)N(C)C(=O)[C@H](CC2=CCCCC2)NC(=O)[C@H](CC(C)C)N(C)C(=O)[C@H](CC2=CCCCC2)NC(=O)[C@@H](CCC#N)OC(=O)[C@H](C)N(C)C1=O [C-87] (cyclo(L[NMeA][Butanoyl(2R-oxy,4-CN)][Ala(1-cyclohexenyl)][NMeL][Ala(1-cyclohexenyl)][NMeAla(5-Cl-benzothien-3-yl)]))
- IC50 [1, 7]: > 25000 nM
- IC50 [2, 12]: 11 nM
- EC50 ([3]; I.A.): > 25000 nM
- IC50 [4, 8]: > 25000 nM
- EC50 ([5]; NCI-H929, I.A.): > 25 µM
- IC50 ([6]; I.A.; read-out: Prl IC50): > 25000 nM

Structure (SMILES): CC(C)C[C@@H]1NC(=O)[C@H](Cc2csc3ccc(Cl)cc23)N(C)C(=O)[C@H](CC2=CCCCC2)NC(=O)[C@H](CC(C)C)N(C)C(=O)[C@H](CC2=CCCC2)NC(=O)[C@@H](CCC#N)OC(=O)[C@H](C)N(C)C1=O [C-85] (cyclo(L[NMeA][Butanoyl(2R-oxy,4-CN)][X12][NMeL][Ala(1-cyclohexenyl)][NMeAla(5-Cl-benzothien-3-yl)]))
- IC50 [1, 11]: 1140 nM
- IC50 [2, 12]: 7 nM
- EC50 ([3]; I.A.): > 25000 nM
- IC50 [4, 8]: > 25000 nM
- EC50 ([5]; NCI-H929, I.A.): > 25 µM
- IC50 ([6]; I.A.; read-out: Prl IC50): > 25000 nM

Structure (SMILES): CC(C)C[C@@H]1NC(=O)[C@H](Cc2csc3ccc(Cl)cc23)N(C)C(=O)[C@H](CC2=CCCC2)NC(=O)[C@H](CC(C)C)N(C)C(=O)[C@H](CC(F)(F)F)NC(=O)[C@@H](CCC#N)OC(=O)[C@H](C)N(C)C1=O [C-96] (cyclo(L[NMeA][Butanoyl(2R-oxy,4-CN)][Abu(4,4,4-F3)][NMeL][X12][NMeAla(5-Cl-benzothien-3-yl)]))
- IC50 [1, 11]: 472 nM
- IC50 [2, 12]: 6 nM
- EC50 ([3]; I.A.): > 25000 nM
- IC50 [4, 13]: 3840 nM
- EC50 [5, 9]: 8.4 µM
- IC50 ([6]; I.A.; read-out: Prl IC50): > 25000 nM

Structure (SMILES): CC(C)C[C@@H]1NC(=O)[C@H](Cc2csc3ccc(Cl)cc23)N(C)C(=O)[C@H](CC2=CCCCC2)NC(=O)[C@H](CC(C)C)N(C)C(=O)[C@H](CC(F)(F)F)NC(=O)[C@@H](CCC#N)OC(=O)[C@H](C)N(C)C1=O [C-97] (cyclo(L[NMeA][Butanoyl(2R-oxy,4-CN)][Abu(4,4,4-F3)][NMeL][Ala(1-cyclohexenyl)][NMeAla(5-Cl-benzothien-3-yl)]))
- IC50 [1, 11]: 709 nM
- IC50 [2, 12]: 6 nM
- EC50 ([3]; I.A.): > 25000 nM
- IC50 [4, 8]: > 25000 nM
- EC50 ([5]; NCI-H929, 48 hours, cell viability, μM): > 20 µM
- IC50 ([6]; I.A.; read-out: Prl IC50): > 25000 nM

Structure (SMILES): CC(C)C[C@@H]1NC(=O)[C@H](Cc2csc3ccc(Cl)cc23)N(C)C(=O)[C@H](CC(C)C)NC(=O)[C@H](CC(C)C)N(C)C(=O)[C@H](CC(F)(F)F)NC(=O)[C@@H](CCC#N)OC(=O)[C@H](C)N(C)C1=O [C-67] (cyclo(L[NMeA][Butanoyl(2R-oxy,4-CN)][Abu(4,4,4-F3)][NMeL]L[NMeAla(5-Cl-benzothien-3-yl)]))
- IC50 [1, 11]: 397 nM
- IC50 [2, 12]: 9 nM
- IC50 [4, 13]: 754 nM
- EC50 [5, 9]: 4.09 µM
